This is an account of results in patent publication US8710032B2, “Inhibitors of the mevalonate pathway of Streptococcus pneumoniae” (Northwestern University, priority 2006, dated 2014).

Molecules are shown by their SMILES. “Also recorded” adds a separate entry of the source. Read-outs that look alike come from different tables or passages of the source.

As usually defined, the Ki is a measure of affinity in units of concentration, obtained from inhibition or displacement. Broadly, the Kd is the equilibrium constant for the complex coming apart. The low end stands for higher affinity, the high end for lower affinity. What is called Km is the substrate concentration at which the rate is half of its maximum.

Assay [1] concerns the target T1, human mevalonate kinase (Homo sapiens, UniProt Q03426).
T1 construct: made in house
As to conditions: background; cited from earlier work.

The target of assay [2] is T1, human mevalonate kinase. As to the kind of experiment: DPM inhibition of human mevalonate kinase (initial rate). Format: biochemical. As to conditions: at DPM concentrations that essentially completely inhibit the streptococcal system; [substrates]~Km. Here is the method:
(§1) The findings that mevalonate-pathway S. pneumoniae mutants cannot survive in mouse lung or serum validated this pathway as an antibiotic target in animal models. Acting on the hypothesis that the primary sequence differences of the mammalian and streptococcal MKs might produce different DPM-inhibition characteristics, the human enzyme was cloned, expressed, purified and tested for DPM inhibition. The effect of DPM on the initial rate of the human and streptococcal enzymes was assessed using samples with matched catalytic poise ([substrates]˜Km, equivalent Vm).

Assay [3] deals with T2, mevalonate kinase (MK) (Streptococcus pneumoniae, UniProt A0A0H2UNK6). As to the kind of experiment: Initial-rate inhibition of S. pneumoniae mevalonate kinase. Format: biochemical. The procedure:
Regulation of the isoprenoid biosynthetic pathway in S. pneumoniae was discovered during an attempt to enzymatically synthesize DPM from ATP and mevalonate using MK and PMK. Individually, either enzyme is capable of quantitative conversion of substrate to product. However, when the enzymes are added simultaneously, the forward reaction decelerates rapidly and little product is formed. […] Thus, this nearly pure noncompetitive inhibitor binds at a site that is physically distinct from the substrate binding sites—an allosteric site. […] The stoichiometry was confirmed by NMR titration. […] Down-regulation of this pathway is quite specific for DPM.
as §1
(§2) Several compounds were designed to inhibit DPM-DC and control cholesterol biosynthesis. In one such compound, each of the C6-methyl protons of mevalonate are replaced with fluorine (6,6,6-trifluoromevalonate, F3-mev). Given DPM inhibition of MK, and excellent inhibition of rat liver DPM-DC by F3-DPM (Ki=0.5 μM) it was hoped that F3-DPM might inhibit both MK and DPM-DC from S. pneumoniae, and, if so, be used as a bacteriostatic or bacteriocidal agent. […] Encouraged, F3-DPM was tested as an antibiotic against S. pneumoniae. To avoid the possible obstacles of phosphatase degradation of DPM and transporting a highly charged anion across the cell wall, a prodrug strategy that relies on conversion of F3-mev to F3-DPM in the cytosol was used. F3-mev conversion to F3-DPM and consequent inhibition of DPM-DC occurs in rat liver extracts. The linear and lactone forms of statins, which target an early step in the isoprenoid pathway, show widely different potencies; consequently, both forms of F3-mev were tested as inhibitors. Serial dilutions of F3-mev were added to Meuller-Hinton Broth, a horse-blood based medium, containing ˜7.5×10^7 cells of either an infectious (ATCC 49619) or non-infectious (R6) strain of S. pneumoniae. The cultures containing F3-mev were incubated for 24 hours at 35° C. and plated to assess viability. The linear form of F3-mev had little effect; confluent growth was observed on all plates; in contrast, the lactone is clearly a bacteriocide—less than 0.0001% of either strain survived at 100-200 μg/ml of the lactone. […]

Assay [4] has as its target T2, mevalonate kinase (MK). As to the kind of experiment: Equilibrium binding of DPM to MK.
Assay [5] deals with T2, mevalonate kinase (MK). As to conditions: read-out: Ki (binding to the allosteric site of mevalonate kinase); S. pneumoniae MK; background, Andreassi et al. 2004; cited from earlier work.
Assay [6] has as its target T3, DPM-DC (Streptococcus pneumoniae, UniProt A0A0H2UNP0).
T3 sequence (A0A0H2UNP0 1-317): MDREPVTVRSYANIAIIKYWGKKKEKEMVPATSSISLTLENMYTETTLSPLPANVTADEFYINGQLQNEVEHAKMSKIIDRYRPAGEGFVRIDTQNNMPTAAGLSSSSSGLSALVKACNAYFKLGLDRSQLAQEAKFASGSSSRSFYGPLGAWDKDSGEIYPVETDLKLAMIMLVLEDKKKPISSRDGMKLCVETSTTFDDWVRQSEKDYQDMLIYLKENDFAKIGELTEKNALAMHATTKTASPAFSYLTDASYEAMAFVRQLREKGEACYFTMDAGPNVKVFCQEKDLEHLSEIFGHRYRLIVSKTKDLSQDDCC
As to the kind of experiment: DPM binding to DPM-DC by intrinsic fluorescence. Here is the method: FIG. 5. DPM Binding to DPM-DC. Conditions: DPM-DC (0.10 μM); MgCl2 (1.0 mM); β-Me (2.0 mM); KCl (50 mM); Glycerol (0.5% v/v); Hepes (50 mM, pH 8.0); T=25 (±2)° C.
This spectroscopic handle can be used to determine the affinities of the inhibitors described in this proposal and to explore the mechanism of DPM-DC. […] As a tool to study mechanism, the DPM-induced fluorescence changes can monitor, by stopped-flow, the progress of the binding reactions. The concentration dependencies of such measurements yield microscopic rate constants, which, in turn, provide ground and transition-state energetics for a particular step in the reaction coordinate. In favorable cases, fluorescence changes occur subsequent to binding as consequence of other structural changes that occur during the catalytic cycle—such is the case with DPM-DC. These changes can be assigned to bond-cleavage steps using by monitoring chemistry in the presteady-state by quenched-flow.

Assay [7] addresses T4, mammalian DPM decarboxylase (Homo sapiens, UniProt P53602).
T4 sequence (P53602 1-400): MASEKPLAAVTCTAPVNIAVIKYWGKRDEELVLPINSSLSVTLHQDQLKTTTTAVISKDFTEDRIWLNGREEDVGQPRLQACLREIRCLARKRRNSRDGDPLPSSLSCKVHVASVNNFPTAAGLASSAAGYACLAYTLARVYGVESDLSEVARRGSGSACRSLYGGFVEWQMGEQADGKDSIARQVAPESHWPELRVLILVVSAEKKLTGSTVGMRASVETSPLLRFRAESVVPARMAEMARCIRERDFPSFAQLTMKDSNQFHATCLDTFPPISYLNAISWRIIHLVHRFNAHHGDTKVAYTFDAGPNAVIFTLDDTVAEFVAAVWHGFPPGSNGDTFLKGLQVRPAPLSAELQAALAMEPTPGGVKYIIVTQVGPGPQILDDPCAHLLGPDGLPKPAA
As to conditions: cited from earlier work; for Km: substrate of mammalian DPM decarboxylase.

In assay [8] the target is DPM-DC (Streptococcus pneumoniae, UniProt Q9FD53). As to the kind of experiment: Inhibition of S. pneumoniae DPM-DC. It counts as biochemical. As to conditions: DPM-DC from S. pneumoniae.
Assay [9] concerns the target T5, rat liver DPM-DC (Rattus norvegicus, UniProt Q62967).
T5 construct: host or cells: rat liver
T5 sequence (Q62967 1-401): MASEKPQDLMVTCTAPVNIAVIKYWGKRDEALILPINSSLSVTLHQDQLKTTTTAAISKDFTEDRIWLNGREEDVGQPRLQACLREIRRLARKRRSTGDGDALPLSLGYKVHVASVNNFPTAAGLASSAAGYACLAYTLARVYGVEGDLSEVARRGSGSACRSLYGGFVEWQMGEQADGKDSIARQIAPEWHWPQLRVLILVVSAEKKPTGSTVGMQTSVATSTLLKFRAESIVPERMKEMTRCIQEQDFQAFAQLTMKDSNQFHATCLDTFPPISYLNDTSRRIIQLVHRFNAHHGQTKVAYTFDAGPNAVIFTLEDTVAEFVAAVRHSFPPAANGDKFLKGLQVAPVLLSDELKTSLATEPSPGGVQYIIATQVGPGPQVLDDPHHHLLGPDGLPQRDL
As to conditions: cited from earlier work.

The subject of assay [10] is S. pneumoniae (ATCC 49619, R6). As to the kind of experiment: Antibiotic test: broth culture, plated to assess viability. Format: cell-based, Streptococcus pneumoniae. As to conditions: serial dilutions; 24 hours at 35° C.; ATCC 49619 or R6. Here is the method: as §2, with “viability.” for “viability. The linear form of F3-mev had little effect; confluent growth was observed on all plates; in contrast, the lactone is clearly a bacteriocide—less than 0.0001% of either strain survived at 100-200 μg/ml of the lactone.”

Assay [11] has as its target T6, mevalonate kinase (Streptococcus pneumoniae, UniProt A0A0H2UNK6).
T6 sequence (A0A0H2UNK6 1-292): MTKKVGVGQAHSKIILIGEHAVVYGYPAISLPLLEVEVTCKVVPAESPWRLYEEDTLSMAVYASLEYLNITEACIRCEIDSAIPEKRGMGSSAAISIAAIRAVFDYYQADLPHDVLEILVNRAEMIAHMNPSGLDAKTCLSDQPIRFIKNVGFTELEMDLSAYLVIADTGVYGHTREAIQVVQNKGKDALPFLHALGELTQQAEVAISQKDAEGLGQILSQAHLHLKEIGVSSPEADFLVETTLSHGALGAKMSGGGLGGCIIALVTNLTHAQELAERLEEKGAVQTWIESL
As to the kind of experiment: Initial substrate results of analogues with mevalonate kinase (FIG. 8). Format: biochemical. As to conditions: [ATP]=0.85 mM. Here is the method: FIG. 8. Initial substrate results [analogue] ranged from 2.0-2.5 mM, except #6 (4.2 mM) and #8 (6.2 mM).
A series of compounds related to compounds 4, 5, 23, and 25 can be synthesized as potential competitive or noncompetitive reversible inhibitors of MK and DPM-DC (See, e.g., FIGS. 6-7). The representative synthesis shown (Scheme 4a) is a modification of that shown in Scheme 4, and R is limited only by availability of the corresponding reagent and synthetic technique, as would be understood by those skilled in the art made aware of this invention (e.g., alkyl, vinyl, acetylenyl, aryl, heteroaryl, etc., via Grignard reaction with the corresponding magnesium bromide or chloride).

Assay [12] has as its system PMK. As to conditions: producing 6-fluoroDPM; cited from earlier work.
The subject of assay [13] is MK. As to conditions: producing 6-fluoroDPM; cited from earlier work.
Assay [14] concerns incorporation of mevalonate into nonsaponifiable lipids. As to conditions: rat liver extracts; relative to F3-mev; cited from earlier work.
Assay [15] has as its target T3, DPM-DC. As to conditions: cited from earlier work.

T1 sequence (Q03426 whole entry): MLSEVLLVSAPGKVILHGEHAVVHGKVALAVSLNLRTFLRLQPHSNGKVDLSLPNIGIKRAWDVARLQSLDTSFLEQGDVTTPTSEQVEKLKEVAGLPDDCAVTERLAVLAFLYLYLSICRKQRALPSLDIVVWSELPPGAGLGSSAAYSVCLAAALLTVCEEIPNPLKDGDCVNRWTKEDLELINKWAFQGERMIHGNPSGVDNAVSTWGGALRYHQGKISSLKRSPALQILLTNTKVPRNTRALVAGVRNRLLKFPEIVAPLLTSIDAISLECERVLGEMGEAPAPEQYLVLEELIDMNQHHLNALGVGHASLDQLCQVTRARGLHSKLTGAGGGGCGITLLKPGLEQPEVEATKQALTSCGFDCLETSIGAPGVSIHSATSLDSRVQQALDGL
Sequence of DPM-DC (Streptococcus pneumoniae, UniProt Q9FD53) (Q9FD53 entry or part of it): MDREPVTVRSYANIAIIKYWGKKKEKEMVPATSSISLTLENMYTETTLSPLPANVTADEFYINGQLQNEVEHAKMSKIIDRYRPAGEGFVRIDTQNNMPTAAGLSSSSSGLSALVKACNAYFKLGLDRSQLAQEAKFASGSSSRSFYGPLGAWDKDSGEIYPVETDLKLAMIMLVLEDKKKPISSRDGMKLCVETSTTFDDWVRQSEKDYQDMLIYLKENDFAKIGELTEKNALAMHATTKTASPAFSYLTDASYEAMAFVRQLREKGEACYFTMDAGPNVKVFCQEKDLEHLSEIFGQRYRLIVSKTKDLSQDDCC

For `C[C@@](O)(CCOP(=O)(O)OP(=O)(O)O)CC(=O)O` [DPM, Diphosphomevalonate], the “effect of DPM on human mevalonate kinase isozyme” value in [1] was “not affected”. Moreover, the “effect of DPM on human MK” value in assay [2] was “virtually unaffected; also recorded: insensitive”. The Ki is 500 nM in assay [3] and 400 nM in [5]. For the same molecule, the “turnover reduced to” value in assay [3] (DPM bound to MK) is “less than 0.5%”. Besides, the “inhibition mechanism (initial-rate study)” value in assay [3] (vs substrates) was “noncompetitively”. In addition, the Kd in assay [4] (Kd DPM, quoted for the NMR titration of MK) amounted to 500 nM; in [4] (affinity of DPM for apo (E) form of the enzyme, apo (E)), 630 nM; in assay [4] (affinity of DPM for ternary (E.AMPPNP.mev) form of the enzyme, ternary (E.AMPPNP.mev)), 530 nM; in [6], 540 nM. This molecule also displayed a binding stoichiometry in [4] (enzyme is a dimer) of 0.5 DPM/active site. Further, the “change in the intrinsic fluorescence of DPM-DC” value in assay [6] (on binding of DPM) was 1.5 fold. The Michaelis-Menten constant (Km) in [7] is 15 µM.
As for `O=C(O)CC(O)(CCOP(=O)(O)OP(=O)(O)O)C(F)(F)F` (stereo not drawn) [F3-DPM], the Ki was 570 nM in assay [3] (MK from S. pneumoniae, read-out: Ki (MK)); 50 nM in assay [8]; 500 nM in assay [9] (rat liver).
As for `CCC(O)(CCOP(=O)(O)OP(=O)(O)O)CC(=O)O` (stereo not drawn) [compound 14], in [7] (read-out: Km), the Km was 33 µM. Moreover, in [7] (that of DPM), the “kcat relative to DPM” value is 32%.
With `O=C(O)CC(O)(CCO)C(F)(F)F` (stereo not drawn) [linear form of F3-mev, 6,6,6-trifluoromevalonate], the “effect on viability (growth on plates)” value in assay [10] is reported as “little effect”.
Take `CC(O)(CCO)CC(=O)O` (stereo not drawn) [mevalonate]: the kcat in assay [11] was determined as 227 s^1.
Consider `O=C(O)CC(O)(CF)CCO` (stereo not drawn) [mono-fluoro derivative, 6-Fluoromevalonic acid], for which the “substrate for PMK (in words)” value in assay [12] is “substrate”. Also, the “substrate for MK (in words)” value in assay [13] is reported as “substrate”. Also, the “more effective than F3-mev in inhibiting incorporation of mevalonate into nonsaponifiable lipids” value in assay [14] is given as 50 times. Besides, in assay [15] (mono-fluoro substitution at C6), the decrease in turnover was 2500 fold. The turnover in assay [15] (substrate of DPM-DC) was 0.19 min⁻¹. Also, the “turnover relative to the native compound” value in [15] (vs DPM) is 0.04%. The “better inhibitor of DPM-DC (relative to F3 analogue)” value in assay [9] (rat liver extracts) is listed as 50 fold.
